Experiments:
Macrophage [1] = experiment: Antiinflammatory activity in human primary macrophages assessed as effect on LPS-induced TNFSF13 gene expression at 30 uM measured after 2 hrs by RT-PCR array (reference value: 47108 a.u.); format: functional
Macrophage [2] = experiment: Antiinflammatory activity in human primary macrophages assessed as effect on LPS-induced IFNA2 gene expression at 30 uM measured after 2 hrs by RT-PCR array (reference value: 1099 a.u.); format: functional
Macrophage [3] = experiment: Antiinflammatory activity in human primary macrophages assessed as effect on LPS-induced IL20 gene expression at 30 uM measured after 2 hrs by RT-PCR array (reference value: 2040 a.u.); format: functional
Macrophage [4] = experiment: Antiinflammatory activity in human primary macrophages assessed as effect on LPS-induced IL1F10 gene expression at 30 uM measured after 2 hrs by RT-PCR array (reference value: 125 a.u.); format: functional
Macrophage [5] = experiment: Antiinflammatory activity in human primary macrophages assessed as effect on LPS-induced CSF2 gene expression at 30 uM measured after 2 hrs by RT-PCR array (reference value: 248134 a.u.); format: functional
Macrophage [6] = experiment: Antiinflammatory activity in human primary macrophages assessed as effect on LPS-induced IL1F5 gene expression at 30 uM measured after 2 hrs by RT-PCR array (reference value: 2464 a.u.); format: functional
Macrophage [7] = experiment: Antiinflammatory activity in human primary macrophages assessed as effect on LPS-induced IFNA1 gene expression at 30 uM measured after 2 hrs by RT-PCR array (reference value: 462 a.u.); format: functional
Macrophage [8] = experiment: Antiinflammatory activity in human primary macrophages assessed as effect on LPS-induced TGFA gene expression at 30 uM measured after 2 hrs by RT-PCR array (reference value: 3224 a.u.); format: functional
Macrophage [9] = experiment: Antiinflammatory activity in human primary macrophages assessed as effect on LPS-induced IL18 gene expression at 30 uM measured after 2 hrs by RT-PCR array (reference value: 153374 a.u.); format: functional
Macrophage [10] = experiment: Antiinflammatory activity in human primary macrophages assessed as effect on LPS-induced TNF gene expression at 30 uM measured after 2 hrs by RT-PCR array (reference value: 7222474 a.u.); format: functional
Macrophage [11] = experiment: Antiinflammatory activity in human primary macrophages assessed as effect on LPS-induced IL6 gene expression at 30 uM measured after 2 hrs by RT-PCR array (reference value: 3511720 a.u.); format: functional
Macrophage [12] = experiment: Antiinflammatory activity in human primary macrophages assessed as effect on LPS-induced IL7 gene expression at 30 uM measured after 2 hrs by RT-PCR array (reference value: 60083 a.u.); format: functional
Macrophage [13] = experiment: Antiinflammatory activity in human primary macrophages assessed as effect on LPS-induced IL19 gene expression at 30 uM measured after 2 hrs by RT-PCR array (reference value: 13781 a.u.); format: functional
Macrophage [14] = experiment: Antiinflammatory activity in human primary macrophages assessed as effect on LPS-induced LTA gene expression at 30 uM measured after 2 hrs by RT-PCR array (reference value: 11322 a.u.); format: functional
Macrophage [15] = experiment: Antiinflammatory activity in human primary macrophages assessed as effect on LPS-induced FIGF gene expression at 30 uM measured after 2 hrs by RT-PCR array (reference value: 60 a.u.); format: functional
Macrophage [16] = experiment: Antiinflammatory activity in human primary macrophages assessed as effect on LPS-induced PDGFA gene expression at 30 uM measured after 2 hrs by RT-PCR array (reference value: 235 a.u.); format: functional
Macrophage [17] = experiment: Antiinflammatory activity in human primary macrophages assessed as effect on LPS-induced INHBA gene expression at 30 uM measured after 2 hrs by RT-PCR array (reference value: 785853 a.u.); format: functional
Macrophage [18] = experiment: Antiinflammatory activity in human primary macrophages assessed as effect on LPS-induced GDF9 gene expression at 30 uM measured after 2 hrs by RT-PCR array (reference value: 113 a.u.); format: functional
Macrophage [19] = experiment: Antiinflammatory activity in human primary macrophages assessed as effect on LPS-induced TNFSF11 gene expression at 30 uM measured after 2 hrs by RT-PCR array (reference value: 32 a.u.); format: functional
[20] = target: T1, Beta-2 adrenergic receptor (Homo sapiens, UniProt P07550); experiment: Antagonist activity at human beta2 adrenoceptor by TR-FRET assay; format: functional
T1 sequence (P07550 whole entry): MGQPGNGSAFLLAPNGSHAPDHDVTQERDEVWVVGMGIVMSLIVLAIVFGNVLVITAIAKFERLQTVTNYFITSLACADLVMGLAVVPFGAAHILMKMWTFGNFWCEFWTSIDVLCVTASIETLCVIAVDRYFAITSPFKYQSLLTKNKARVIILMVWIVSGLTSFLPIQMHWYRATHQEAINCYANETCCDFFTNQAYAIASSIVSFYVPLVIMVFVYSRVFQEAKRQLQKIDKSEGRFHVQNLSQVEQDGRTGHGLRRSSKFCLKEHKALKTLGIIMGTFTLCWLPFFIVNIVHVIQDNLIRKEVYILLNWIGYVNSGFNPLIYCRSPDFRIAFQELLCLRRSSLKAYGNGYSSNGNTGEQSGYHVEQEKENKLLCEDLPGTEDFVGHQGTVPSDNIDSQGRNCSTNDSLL

OATP1B1 (SLCO1B1) = OATP1B1 (SLCO1B1) (Homo sapiens, UniProt Q9Y6L6); experiment: Blockade of human OATP1B1 by imaging analysis
Chain of OATP1B1 (SLCO1B1) (Q9Y6L6 whole entry): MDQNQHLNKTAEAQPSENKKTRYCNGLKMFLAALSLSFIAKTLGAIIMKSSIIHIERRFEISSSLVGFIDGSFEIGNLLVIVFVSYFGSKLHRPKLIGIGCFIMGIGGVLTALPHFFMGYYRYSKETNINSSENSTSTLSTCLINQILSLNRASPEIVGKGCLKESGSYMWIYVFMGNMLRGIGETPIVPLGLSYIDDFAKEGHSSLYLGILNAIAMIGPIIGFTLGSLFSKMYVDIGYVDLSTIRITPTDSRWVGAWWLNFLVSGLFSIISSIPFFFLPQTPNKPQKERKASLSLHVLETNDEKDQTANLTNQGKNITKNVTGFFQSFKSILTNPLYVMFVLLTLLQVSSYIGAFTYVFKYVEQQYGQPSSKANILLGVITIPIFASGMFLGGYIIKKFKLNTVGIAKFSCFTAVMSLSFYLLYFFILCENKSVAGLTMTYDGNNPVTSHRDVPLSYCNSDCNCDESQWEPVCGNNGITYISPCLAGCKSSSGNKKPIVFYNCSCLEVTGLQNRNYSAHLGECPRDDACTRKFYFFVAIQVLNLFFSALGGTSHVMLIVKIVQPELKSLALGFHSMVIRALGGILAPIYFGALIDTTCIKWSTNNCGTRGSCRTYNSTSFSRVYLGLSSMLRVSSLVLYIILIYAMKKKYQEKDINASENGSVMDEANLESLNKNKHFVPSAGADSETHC

[21] = target: Amine oxidase [flavin-containing] A (Homo sapiens, UniProt P21397); experiment: Inhibition of human MAOA by FLINT assay
Chain of Amine oxidase [flavin-containing] A (P21397 whole entry): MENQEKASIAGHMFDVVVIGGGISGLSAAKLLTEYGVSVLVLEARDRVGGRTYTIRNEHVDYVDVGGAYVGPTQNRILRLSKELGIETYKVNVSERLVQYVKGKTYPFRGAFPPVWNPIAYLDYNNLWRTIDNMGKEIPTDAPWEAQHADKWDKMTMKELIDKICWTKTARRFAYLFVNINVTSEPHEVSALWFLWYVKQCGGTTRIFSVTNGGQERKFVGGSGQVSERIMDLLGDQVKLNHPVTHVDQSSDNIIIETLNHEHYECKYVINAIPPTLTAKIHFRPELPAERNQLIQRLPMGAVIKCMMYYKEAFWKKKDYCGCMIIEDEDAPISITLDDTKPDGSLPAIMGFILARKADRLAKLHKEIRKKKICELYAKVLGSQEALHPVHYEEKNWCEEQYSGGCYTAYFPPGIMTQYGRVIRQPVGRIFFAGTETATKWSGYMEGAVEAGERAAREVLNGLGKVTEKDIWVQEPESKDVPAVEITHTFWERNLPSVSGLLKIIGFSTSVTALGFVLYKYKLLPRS

[22] = target: Potassium voltage-gated channel subfamily A member 5 (Homo sapiens, UniProt P22460); experiment: Blockade of human Kv1.5 by electrophysiology assay
Chain of Potassium voltage-gated channel subfamily A member 5 (P22460 whole entry): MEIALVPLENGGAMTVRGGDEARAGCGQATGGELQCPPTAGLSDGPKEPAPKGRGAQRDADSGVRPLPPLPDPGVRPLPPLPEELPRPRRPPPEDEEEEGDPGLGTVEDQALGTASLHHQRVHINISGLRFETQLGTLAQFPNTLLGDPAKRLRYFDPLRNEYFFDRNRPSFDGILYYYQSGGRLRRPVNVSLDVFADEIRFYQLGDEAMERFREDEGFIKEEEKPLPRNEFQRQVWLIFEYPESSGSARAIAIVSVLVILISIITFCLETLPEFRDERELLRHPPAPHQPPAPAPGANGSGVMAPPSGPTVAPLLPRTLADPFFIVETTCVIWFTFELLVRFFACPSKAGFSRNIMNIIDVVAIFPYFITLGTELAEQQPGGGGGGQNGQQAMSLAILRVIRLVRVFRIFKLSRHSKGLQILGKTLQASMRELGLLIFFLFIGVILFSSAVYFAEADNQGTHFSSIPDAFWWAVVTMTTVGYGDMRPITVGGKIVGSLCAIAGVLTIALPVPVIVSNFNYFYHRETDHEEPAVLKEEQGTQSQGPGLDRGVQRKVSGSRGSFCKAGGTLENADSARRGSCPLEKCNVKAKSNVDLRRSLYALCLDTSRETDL

Adenosine receptor A2a = Adenosine receptor A2a (Homo sapiens, UniProt P29274); experiment: Agonist activity at human adenosine A2a by TR-FRET assay; format: functional
Chain of Adenosine receptor A2a (P29274 whole entry): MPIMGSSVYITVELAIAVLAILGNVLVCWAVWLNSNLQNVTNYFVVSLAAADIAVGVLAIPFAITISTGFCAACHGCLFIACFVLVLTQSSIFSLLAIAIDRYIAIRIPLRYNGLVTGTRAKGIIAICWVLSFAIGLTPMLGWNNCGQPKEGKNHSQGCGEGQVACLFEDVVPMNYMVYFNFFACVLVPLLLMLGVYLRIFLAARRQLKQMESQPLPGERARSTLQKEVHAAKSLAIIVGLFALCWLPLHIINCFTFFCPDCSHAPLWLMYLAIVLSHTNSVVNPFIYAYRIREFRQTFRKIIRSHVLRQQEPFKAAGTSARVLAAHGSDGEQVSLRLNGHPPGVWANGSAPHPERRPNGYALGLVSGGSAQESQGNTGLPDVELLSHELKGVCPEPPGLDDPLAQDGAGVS

[23] = target: T2, 5-hydroxytryptamine receptor 2A (Homo sapiens, UniProt P28223); experiment: Agonist activity at human 5-HT2A by intracellular Ca luminescence assay; format: functional, cell-based
T2 sequence (P28223 whole entry): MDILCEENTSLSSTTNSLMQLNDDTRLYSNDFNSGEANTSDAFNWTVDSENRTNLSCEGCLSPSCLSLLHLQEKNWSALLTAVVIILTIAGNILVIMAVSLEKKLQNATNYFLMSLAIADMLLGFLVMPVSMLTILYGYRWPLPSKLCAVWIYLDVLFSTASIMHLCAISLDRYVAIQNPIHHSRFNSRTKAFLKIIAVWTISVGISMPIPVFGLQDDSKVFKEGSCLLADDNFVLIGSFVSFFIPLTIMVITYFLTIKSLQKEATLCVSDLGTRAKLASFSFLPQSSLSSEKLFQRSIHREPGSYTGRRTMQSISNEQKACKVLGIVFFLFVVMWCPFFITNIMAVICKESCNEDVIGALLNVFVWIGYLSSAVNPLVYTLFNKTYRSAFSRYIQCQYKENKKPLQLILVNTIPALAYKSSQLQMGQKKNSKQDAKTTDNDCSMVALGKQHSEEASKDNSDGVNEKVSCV

[24] = target: Voltage-dependent L-type calcium channel subunit alpha-1C (Homo sapiens, UniProt Q13936); experiment: Antagonist activity at human CaV1.2 (L-type) by intracellular Ca fluorescence assay; format: cell-based
[25] = target: T1, Beta-2 adrenergic receptor; experiment: Agonist activity at human beta2 adrenoceptor by TR-FRET assay; format: functional
[26] = target: Acetylcholine receptor subunit alpha (Homo sapiens, UniProt P02708); experiment: Agonist activity at human alpha 1 nAChR by intracellular Ca fluorescence assay; format: cell-based
Chain of Acetylcholine receptor subunit alpha (P02708 whole entry): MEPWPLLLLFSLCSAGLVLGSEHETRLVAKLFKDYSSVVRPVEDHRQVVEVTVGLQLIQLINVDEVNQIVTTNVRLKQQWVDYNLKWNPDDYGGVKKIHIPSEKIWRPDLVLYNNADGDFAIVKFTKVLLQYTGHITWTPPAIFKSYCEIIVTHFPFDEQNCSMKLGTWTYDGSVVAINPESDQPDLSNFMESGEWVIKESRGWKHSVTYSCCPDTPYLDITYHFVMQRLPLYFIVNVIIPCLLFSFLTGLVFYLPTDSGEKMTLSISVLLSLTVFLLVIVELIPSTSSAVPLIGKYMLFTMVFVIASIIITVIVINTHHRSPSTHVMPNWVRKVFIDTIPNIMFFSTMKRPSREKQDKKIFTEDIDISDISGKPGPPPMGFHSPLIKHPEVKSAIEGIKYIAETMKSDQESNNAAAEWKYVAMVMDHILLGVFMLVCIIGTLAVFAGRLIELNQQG

[27] = target: T2, 5-hydroxytryptamine receptor 2A; experiment: Antagonist activity at human 5-HT2A by intracellular Ca luminescence assay; format: functional, cell-based
[28] = target: Alpha-1B adrenergic receptor (Homo sapiens, UniProt P35368); experiment: Antagonist activity at human adrenergic alpha 1B by intracellular Ca luminescence assay; format: functional, cell-based
Chain of Alpha-1B adrenergic receptor (P35368 whole entry): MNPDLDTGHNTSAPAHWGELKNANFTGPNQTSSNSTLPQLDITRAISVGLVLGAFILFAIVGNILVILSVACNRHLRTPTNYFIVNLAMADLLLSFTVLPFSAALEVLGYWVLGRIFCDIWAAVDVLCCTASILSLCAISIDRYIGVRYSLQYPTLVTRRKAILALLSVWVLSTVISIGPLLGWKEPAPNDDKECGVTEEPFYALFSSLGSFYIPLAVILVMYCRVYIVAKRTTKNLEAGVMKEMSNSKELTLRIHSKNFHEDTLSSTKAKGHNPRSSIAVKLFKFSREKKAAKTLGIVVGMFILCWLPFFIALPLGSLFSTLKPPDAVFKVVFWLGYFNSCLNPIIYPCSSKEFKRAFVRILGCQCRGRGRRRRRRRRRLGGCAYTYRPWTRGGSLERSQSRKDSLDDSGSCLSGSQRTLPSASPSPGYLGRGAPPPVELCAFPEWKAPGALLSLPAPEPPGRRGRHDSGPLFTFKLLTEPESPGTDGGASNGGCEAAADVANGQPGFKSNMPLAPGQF

[29] = target: T3, Muscarinic acetylcholine receptor M1 (Homo sapiens, UniProt P11229); experiment: Antagonist activity at human CHRM1 by intracellular Ca fluorescence assay; format: functional, cell-based
T3 sequence (P11229 whole entry): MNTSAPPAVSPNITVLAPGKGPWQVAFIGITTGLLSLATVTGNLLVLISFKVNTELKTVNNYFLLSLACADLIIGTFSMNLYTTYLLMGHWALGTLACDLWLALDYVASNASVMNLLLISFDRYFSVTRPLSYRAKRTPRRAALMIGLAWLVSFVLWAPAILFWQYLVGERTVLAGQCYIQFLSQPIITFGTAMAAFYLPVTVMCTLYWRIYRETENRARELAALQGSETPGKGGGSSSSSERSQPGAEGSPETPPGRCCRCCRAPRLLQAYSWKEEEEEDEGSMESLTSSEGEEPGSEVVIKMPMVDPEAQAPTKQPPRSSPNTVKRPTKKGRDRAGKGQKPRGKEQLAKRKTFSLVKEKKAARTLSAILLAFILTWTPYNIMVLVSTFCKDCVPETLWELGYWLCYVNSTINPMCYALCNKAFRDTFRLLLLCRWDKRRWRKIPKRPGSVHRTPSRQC

Substance-P receptor = Substance-P receptor (Homo sapiens, UniProt P25103); experiment: Antagonist activity at human NK-1 by intracellular Ca luminescence assay; format: functional, cell-based
Chain of Substance-P receptor (P25103 whole entry): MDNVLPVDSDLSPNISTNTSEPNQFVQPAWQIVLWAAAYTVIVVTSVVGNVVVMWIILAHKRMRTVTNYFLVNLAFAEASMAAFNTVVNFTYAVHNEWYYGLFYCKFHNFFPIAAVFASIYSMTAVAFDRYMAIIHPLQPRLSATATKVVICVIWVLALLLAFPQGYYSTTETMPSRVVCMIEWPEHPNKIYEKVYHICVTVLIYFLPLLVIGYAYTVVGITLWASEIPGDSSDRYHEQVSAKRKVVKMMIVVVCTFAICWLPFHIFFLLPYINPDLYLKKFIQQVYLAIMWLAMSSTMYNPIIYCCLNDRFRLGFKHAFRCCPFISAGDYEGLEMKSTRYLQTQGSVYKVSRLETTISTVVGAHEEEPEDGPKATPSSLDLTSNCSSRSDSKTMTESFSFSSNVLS

| Compound | Activity (Macrophage [1]) | Activity (Macrophage [2]) | Activity (Macrophage [3]) | Activity (Macrophage [4]) | Activity (Macrophage [5]) | Activity (Macrophage [6]) | Activity (Macrophage [7]) | Activity (Macrophage [8]) | Activity (Macrophage [9]) | Activity (Macrophage [10]) | Activity (Macrophage [11]) | Activity (Macrophage [12]) | Activity (Macrophage [13]) | Activity (Macrophage [14]) | Activity (Macrophage [15]) | Activity (Macrophage [16]) | Activity (Macrophage [17]) | Activity (Macrophage [18]) | Activity (Macrophage [19]) | XC50 [20] | also measured |
| --- | --- | --- | --- | --- | --- | --- | --- | --- | --- | --- | --- | --- | --- | --- | --- | --- | --- | --- | --- | --- | --- |
| CCOC(=O)CCNc1cc(N2CCc3ccccc3CC2)nc(-c2ccccn2)n1 | 43866 a.u. | 641 a.u. | 372 a.u. | 11 a.u. | 10602 a.u. | 233 a.u. | 285 a.u. | 3241 a.u. | 74923 a.u. | 1593909 a.u. | 242914 a.u. | 4135 a.u. | 1216 a.u. | 708 a.u. | 19 a.u. | 392 a.u. | 157533 a.u. | 15 a.u. | 255 a.u. | – | – |
| O=C(O)CCNc1cc(N2CCc3ccccc3CC2)nc(-c2ccccn2)n1 | – | – | – | – | – | – | – | – | – | – | – | – | – | – | – | – | – | – | – | > 32 µM | XC50 (OATP1B1 (SLCO1B1)): > 25 µM; XC50 [21]: 50 µM; XC50 [22]: > 50 µM; XC50 (Adenosine receptor A2a): > 32 µM; XC50 [23]: > 40 µM; XC50 [24]: > 16 µM; XC50 [25]: > 32 µM; XC50 [26]: > 50 µM; XC50 [27]: > 40 µM; XC50 [28]: > 40 µM; XC50 [29]: > 16 µM; XC50 (Substance-P receptor): > 40 µM |
| O=C(O)CCNc1cc(N2CCc3ccccc3CC2)nc(-c2cccnc2)n1 | – | – | – | – | – | – | – | – | – | – | – | – | – | – | – | – | – | – | – | > 32 µM | XC50 (OATP1B1 (SLCO1B1)): 20 µM; XC50 [21]: > 100 µM; XC50 [22]: > 50 µM; XC50 (Adenosine receptor A2a): > 32 µM; XC50 [23]: > 40 µM; XC50 [24]: > 16 µM; XC50 [25]: > 32 µM; XC50 [26]: > 50 µM; XC50 [27]: > 40 µM; XC50 [28]: > 40 µM; XC50 [29]: > 16 µM; XC50 (Substance-P receptor): > 40 µM |
| CCOC(=O)CCNc1cc(N2CCc3ccccc3CC2)nc(-c2cccnc2)n1 | 39565 a.u. | 65 a.u. | 748 a.u. | 102 a.u. | 67356 a.u. | 2254 a.u. | 835 a.u. | 2862 a.u. | 185197 a.u. | 5261995 a.u. | 1497395 a.u. | 24543 a.u. | 1914 a.u. | 9224 a.u. | 87 a.u. | 239 a.u. | 558833 a.u. | 64 a.u. | 27 a.u. | – | – |
